Laboratory results as given in US20200008426A1, “ACTIVE COMPOUND COMBINATIONS” (BAYER AKTIENGESELLSCHAFT, priority 2017, published 2020).

Experiments:
Phakopsora pachyrhizi = assay: In vivo preventive test on Phakopsora (soybeans); conditions: Table C3, 7 days after inoculation
Leptosphaeria nodorum = assay: In vitro-Test with Leptosphaeria nodorum; assay type: cell-based; conditions: 0.04 ppm
Septoria tritici = assay: In vivo preventive Septoria tritici test (wheat); conditions: Zymoseptoria tritici, 504 h, 21 days after inoculation, read-out: Efficacy in % found; for pest or weed control at 125 ppm: 125 ppm a.i.; for pest or weed control at 250 ppm: 250 ppm a.i.
Experimental: After the spray coating has been dried, the plants are sprayed with a spore suspension of Septoria tritici.
The test is evaluated 21 days after the inoculation.

Puccinia triticina = assay: In vivo preventive Puccinia triticina test (wheat); conditions: Puccinia triticina, 192 h, 8 days after inoculation, read-out: Efficacy in % found; for pest or weed control at 250 ppm: 250 ppm a.i.
Experimental: After the spray coating has been dried, the plants are sprayed with a spore suspension of Puccinia triticina.
The test is evaluated 8 days after the inoculation.

Venturia inaequalis = assay: In vivo preventive test on Venturia (apples); conditions: Table E2, 10 days after inoculation
Experimental: The test is evaluated 10 days after the inoculation.

[1] = system: Blumeria graminis f.sp. hordei; assay: In vivo preventive Blumeria test (barley); conditions: Table F2, 7 days after inoculation
Botrytis cinerea = assay: In vitro-Test with Botrytis cinerea; assay type: cell-based
Pyrenophora teres = assay: In vitro-Test with Pyrenophora teres; assay type: cell-based
[2] = In vivo ecotoxicity screening test on fish (Danio rerio); conditions: Danio rerio, in vivo, other: exposure of embryos to the aqueous preparation
Procedure, shortened: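 Zebrafish mortality recorded after 96 h across five increasing concentrations between 0.01 and 1000 ppm a.i., with at most 0.5% DMSO. Mixtures tested at A:B weight ratios of 5:1 to 1:5; measured ECx compared with predicted value as the Model Deviation Ratio.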

Fusarium culmorum = assay: In vitro-Test with Fusarium culmorum; assay type: cell-based
Sphaerotheca fuliginea = assay: In vivo preventive test on Sphaerotheca (cucumbers); conditions: Table D2, 7 days after inoculation
Rhizoctonia solani = assay: In vitro-Test with Rhizoctonia solani; assay type: cell-based; conditions: compound alone

N#Cc1c(Cl)c(Cl)c(Cl)c(C#N)c1Cl [Example 5.004, chlorothalonil]
Efficacy in % found (Phakopsora pachyrhizi; 25 ppm a.i.): 8% | Efficacy in % found (Phakopsora pachyrhizi; 50 ppm a.i.): 0% | Efficacy % (Leptosphaeria nodorum): 0% | pest or weed control at 62.5 ppm (Septoria tritici; 62.5 ppm a.i.): 0% | pest or weed control at 125 ppm (Septoria tritici): 0% | pest or weed control at 250 ppm (Septoria tritici): 14% | pest or weed control at 62.5 ppm (Puccinia triticina; 62.5 ppm a.i.): 0% | pest or weed control at 250 ppm (Puccinia triticina): 40% | Efficacy in % found (Venturia inaequalis; 12.5 ppm a.i.): 24% | Efficacy in % found (Venturia inaequalis; 25 ppm a.i.): 14% | Efficacy in % found (Venturia inaequalis; 50 ppm a.i.): 93% | Efficacy in % found ([1]; 62.5 ppm a.i.): 22% | Efficacy in % found ([1]; 125 ppm a.i.): 44% | Efficacy in % found ([1]; 250 ppm a.i.): 44%

CC1(C)N=C(c2cnc3ccccc3c2)c2ccccc2C1(F)F [Example 15.047, 3-(4,4-difluoro-3,3-dimethyl-3,4-dihydroisoquinolin-1-yl)quinoline]
Efficacy % (Botrytis cinerea; 1 ppm): 0% | Efficacy % (Botrytis cinerea; 5 ppm): 0% | Efficacy % (Pyrenophora teres; 0.04 ppm): 28% | Efficacy % (Pyrenophora teres; 0.2 ppm): 76% | Efficacy % (Pyrenophora teres; 1 ppm): 64% | LC50 at 96 h [2]: 7.82 µg/mL | Efficacy % (Fusarium culmorum; 0.04 ppm): 83% | Efficacy % (Fusarium culmorum; 0.2 ppm): 100% | pest or weed control at 125 ppm (Septoria tritici): 0% | pest or weed control at 250 ppm (Septoria tritici): 0% | pest or weed control at 500 ppm (Septoria tritici; 500 ppm a.i.): 0% | Efficacy in % found (Sphaerotheca fuliginea; 2.5 ppm a.i.): 0% | Efficacy in % found (Sphaerotheca fuliginea; 5 ppm a.i.): 0% | Efficacy in % found (Sphaerotheca fuliginea; 10 ppm a.i.): 8% | Efficacy % (Rhizoctonia solani; 1 ppm): 0% | Efficacy % (Rhizoctonia solani; 5 ppm): 0% | pest or weed control at 125 ppm (Puccinia triticina; 125 ppm a.i.): 11% | pest or weed control at 250 ppm (Puccinia triticina): 11% | pest or weed control at 500 ppm (Puccinia triticina; 500 ppm a.i.): 22%
